Tests used:
HEK293 cells = type: cell-based, human
V79-G3 cells = type: cell-based, Chinese hamster

Row | Compound | inhibition of ADP-stimulated respiration (HEK293 cells) | rotenone sensitivity of glutamate+malate-supported respiration (V79-G3 cells) | increase in respiration over the basal level (V79-G3 cells) [%]
1 | C=C(C)[C@H]1Cc2c(ccc3c2O[C@@H]2COc4cc(OC)c(OC)cc4[C@@H]2C3=O)O1 [rotenone] | dose-dependently | sensitive to rotenone | –
2 | Nc1ncnc2c1ncn2[C@@H]1O[C@H](COP(=O)(O)OP(=O)(O)O)[C@@H](O)[C@H]1O [ADP, adenosine diphosphate] | – | – | ~20
